These are literature values, as cited in PMC4136950 (Journal of peptide science : an official publication of the …, 2010).

Data set [1] deals with NR2A NMDA receptor subtype (co-expressed with NR1-2b) (Rattus norvegicus, UniProt P35439+Q00959). As to conditions: read-out: Approximate IC50, NR2A.
The target of data set [2] is NR2B NMDA receptor subtype (co-expressed with NR1-2b) (Rattus norvegicus, UniProt P35439+Q00960). The note with it: read-out: Approximate IC50, NR2B.
Data set [3] has as its target NR2C NMDA receptor subtype (co-expressed with NR1-2b) (Rattus norvegicus, UniProt P35439+Q00961). As to conditions: read-out: Approximate IC50, NR2C.
For data set [4], the target named is NR2D NMDA receptor subtype (co-expressed with NR1-2b) (Rattus norvegicus, UniProt P35439+Q62645). The note with it: read-out: Approximate IC50, NR2D.
The subject of data set [5] is NMDA receptor subtypes NR2(A-D).

Chain of NR2C NMDA receptor subtype (co-expressed with NR1-2b) (Q00961 20-1237, other chains not shown): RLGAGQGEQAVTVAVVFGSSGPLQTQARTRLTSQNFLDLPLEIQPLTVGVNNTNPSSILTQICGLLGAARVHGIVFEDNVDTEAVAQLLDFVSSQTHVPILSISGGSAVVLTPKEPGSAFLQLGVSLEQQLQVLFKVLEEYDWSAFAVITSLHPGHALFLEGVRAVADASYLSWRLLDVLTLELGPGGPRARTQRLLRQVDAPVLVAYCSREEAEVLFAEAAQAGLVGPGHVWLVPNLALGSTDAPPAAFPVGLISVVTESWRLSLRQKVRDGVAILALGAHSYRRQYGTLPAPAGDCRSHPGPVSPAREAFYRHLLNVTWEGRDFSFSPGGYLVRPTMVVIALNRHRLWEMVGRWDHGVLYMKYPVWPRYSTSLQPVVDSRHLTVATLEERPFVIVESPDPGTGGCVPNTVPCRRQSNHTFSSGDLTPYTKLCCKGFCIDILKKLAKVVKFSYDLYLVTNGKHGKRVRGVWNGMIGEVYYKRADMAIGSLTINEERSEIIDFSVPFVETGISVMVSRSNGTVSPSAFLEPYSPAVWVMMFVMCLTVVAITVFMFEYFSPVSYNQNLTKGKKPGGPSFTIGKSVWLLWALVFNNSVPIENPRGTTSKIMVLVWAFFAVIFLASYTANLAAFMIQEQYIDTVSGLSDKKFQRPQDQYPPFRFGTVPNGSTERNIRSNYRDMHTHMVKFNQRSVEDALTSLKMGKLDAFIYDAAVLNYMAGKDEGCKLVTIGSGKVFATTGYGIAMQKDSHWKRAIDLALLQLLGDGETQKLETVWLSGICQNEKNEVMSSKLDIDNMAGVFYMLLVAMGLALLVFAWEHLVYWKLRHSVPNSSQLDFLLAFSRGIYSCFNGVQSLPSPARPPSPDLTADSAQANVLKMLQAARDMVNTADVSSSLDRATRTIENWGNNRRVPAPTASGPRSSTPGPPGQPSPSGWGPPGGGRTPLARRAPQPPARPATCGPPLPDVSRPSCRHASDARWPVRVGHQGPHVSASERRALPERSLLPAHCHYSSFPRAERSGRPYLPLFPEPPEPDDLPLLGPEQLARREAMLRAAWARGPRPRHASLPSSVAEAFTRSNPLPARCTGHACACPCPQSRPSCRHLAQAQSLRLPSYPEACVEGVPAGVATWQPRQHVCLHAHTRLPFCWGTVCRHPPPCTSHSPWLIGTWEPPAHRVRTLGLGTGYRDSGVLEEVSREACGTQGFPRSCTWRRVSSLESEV
Chain of NR2A NMDA receptor subtype (co-expressed with NR1-2b) (Q00959 23-1464, other chains not shown): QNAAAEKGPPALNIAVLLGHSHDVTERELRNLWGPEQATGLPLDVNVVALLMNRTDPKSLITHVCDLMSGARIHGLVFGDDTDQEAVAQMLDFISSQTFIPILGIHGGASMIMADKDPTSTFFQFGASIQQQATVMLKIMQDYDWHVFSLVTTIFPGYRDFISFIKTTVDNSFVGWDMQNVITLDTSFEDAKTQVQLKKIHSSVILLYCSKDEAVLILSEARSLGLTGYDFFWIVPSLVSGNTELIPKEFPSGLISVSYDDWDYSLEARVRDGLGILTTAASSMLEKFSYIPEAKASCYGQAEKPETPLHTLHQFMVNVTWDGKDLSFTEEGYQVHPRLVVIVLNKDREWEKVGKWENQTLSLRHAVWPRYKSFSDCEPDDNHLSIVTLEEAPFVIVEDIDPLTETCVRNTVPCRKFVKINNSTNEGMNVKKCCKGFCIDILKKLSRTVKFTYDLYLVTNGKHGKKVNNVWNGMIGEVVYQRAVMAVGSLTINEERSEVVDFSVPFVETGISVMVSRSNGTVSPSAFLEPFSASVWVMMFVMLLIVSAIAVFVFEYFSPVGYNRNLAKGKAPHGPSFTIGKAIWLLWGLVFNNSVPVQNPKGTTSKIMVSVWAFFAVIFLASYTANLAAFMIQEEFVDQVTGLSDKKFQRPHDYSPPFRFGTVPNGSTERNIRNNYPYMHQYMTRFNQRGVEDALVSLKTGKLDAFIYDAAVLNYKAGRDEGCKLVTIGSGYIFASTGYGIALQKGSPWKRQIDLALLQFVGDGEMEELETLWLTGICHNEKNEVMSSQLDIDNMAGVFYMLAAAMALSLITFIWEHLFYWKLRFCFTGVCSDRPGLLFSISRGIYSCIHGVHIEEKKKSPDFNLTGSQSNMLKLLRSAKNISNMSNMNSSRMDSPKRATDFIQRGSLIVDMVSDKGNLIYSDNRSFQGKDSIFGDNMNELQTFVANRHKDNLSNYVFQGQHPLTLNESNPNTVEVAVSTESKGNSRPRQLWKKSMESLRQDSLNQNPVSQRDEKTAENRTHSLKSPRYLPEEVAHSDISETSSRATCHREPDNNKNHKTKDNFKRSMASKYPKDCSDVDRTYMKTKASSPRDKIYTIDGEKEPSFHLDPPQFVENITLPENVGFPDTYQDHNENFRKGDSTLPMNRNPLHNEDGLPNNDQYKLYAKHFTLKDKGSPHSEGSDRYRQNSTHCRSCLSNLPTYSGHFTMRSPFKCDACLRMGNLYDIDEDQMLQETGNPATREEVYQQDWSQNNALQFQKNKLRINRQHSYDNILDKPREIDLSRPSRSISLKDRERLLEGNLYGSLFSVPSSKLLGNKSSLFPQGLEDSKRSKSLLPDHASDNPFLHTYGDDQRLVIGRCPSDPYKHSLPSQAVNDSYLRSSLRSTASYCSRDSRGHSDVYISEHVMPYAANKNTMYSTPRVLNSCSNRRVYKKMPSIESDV
Chain of NR2B NMDA receptor subtype (co-expressed with NR1-2b) (Q00960 27-1482, other chains not shown): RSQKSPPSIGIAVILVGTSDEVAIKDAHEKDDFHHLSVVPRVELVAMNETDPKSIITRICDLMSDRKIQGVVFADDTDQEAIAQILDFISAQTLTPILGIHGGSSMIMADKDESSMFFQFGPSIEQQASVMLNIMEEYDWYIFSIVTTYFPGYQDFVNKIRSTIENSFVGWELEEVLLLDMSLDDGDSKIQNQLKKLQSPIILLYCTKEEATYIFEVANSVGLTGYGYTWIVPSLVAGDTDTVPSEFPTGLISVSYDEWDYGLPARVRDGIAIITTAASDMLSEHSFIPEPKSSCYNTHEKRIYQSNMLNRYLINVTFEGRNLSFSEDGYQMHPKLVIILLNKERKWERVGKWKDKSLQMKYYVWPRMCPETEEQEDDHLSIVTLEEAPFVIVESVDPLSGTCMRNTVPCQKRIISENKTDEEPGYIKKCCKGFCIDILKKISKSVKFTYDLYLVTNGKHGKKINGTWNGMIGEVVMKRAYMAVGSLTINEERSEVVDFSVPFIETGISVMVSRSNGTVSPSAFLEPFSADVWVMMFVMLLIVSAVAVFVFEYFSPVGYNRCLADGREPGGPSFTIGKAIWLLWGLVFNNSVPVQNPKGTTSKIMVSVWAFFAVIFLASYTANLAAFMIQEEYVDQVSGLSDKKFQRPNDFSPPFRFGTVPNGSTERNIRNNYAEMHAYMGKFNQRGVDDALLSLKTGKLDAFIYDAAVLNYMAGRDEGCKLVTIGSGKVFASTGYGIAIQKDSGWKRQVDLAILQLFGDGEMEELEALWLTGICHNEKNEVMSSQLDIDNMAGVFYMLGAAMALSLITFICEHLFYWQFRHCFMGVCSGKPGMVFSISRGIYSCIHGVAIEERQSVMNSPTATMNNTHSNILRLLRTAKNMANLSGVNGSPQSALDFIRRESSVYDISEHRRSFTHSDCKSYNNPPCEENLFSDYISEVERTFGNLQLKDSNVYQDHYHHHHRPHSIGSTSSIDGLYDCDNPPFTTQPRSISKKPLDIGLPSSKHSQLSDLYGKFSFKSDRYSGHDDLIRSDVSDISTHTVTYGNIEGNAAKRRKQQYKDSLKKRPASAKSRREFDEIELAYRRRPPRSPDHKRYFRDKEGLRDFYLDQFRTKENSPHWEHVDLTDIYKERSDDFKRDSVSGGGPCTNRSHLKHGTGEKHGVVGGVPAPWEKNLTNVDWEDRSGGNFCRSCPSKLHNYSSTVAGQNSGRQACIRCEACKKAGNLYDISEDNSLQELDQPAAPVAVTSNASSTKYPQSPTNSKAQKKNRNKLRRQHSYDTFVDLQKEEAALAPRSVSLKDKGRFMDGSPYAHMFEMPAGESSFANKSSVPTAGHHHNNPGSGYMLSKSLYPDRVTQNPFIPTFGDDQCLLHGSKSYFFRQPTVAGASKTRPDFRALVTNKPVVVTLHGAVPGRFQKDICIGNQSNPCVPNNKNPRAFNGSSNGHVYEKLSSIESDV

As for GDγγ YSK FIγ RERγ AGR LDLSKFP^^ [ConBr], the IC50 (commonly the midpoint of a concentration-inhibition curve) in data set [1] was 680 nM; in data set [2], 140 nM; in data set [3], 4900 nM; in data set [4] it was 310 nM. The “antagonism of NMDA receptor subtypes” value in data set [5] is “known antagonist of the NR2B and NR2D NMDA receptor subtypes”.
